# Measurements from patent publication US20030162777A1, “Novel N-acylated heterocycles” (Recordati S.A., priority 2001, published 2003).
# Target: T1, human 5HT1A-serotonergic receptor (Homo sapiens, UniProt P08908)
# T1 construct: expressed in transfected cells; host or cells: HeLa (human cell line), stably transfected; cell membranes used
# T1 sequence (P08908 1-422): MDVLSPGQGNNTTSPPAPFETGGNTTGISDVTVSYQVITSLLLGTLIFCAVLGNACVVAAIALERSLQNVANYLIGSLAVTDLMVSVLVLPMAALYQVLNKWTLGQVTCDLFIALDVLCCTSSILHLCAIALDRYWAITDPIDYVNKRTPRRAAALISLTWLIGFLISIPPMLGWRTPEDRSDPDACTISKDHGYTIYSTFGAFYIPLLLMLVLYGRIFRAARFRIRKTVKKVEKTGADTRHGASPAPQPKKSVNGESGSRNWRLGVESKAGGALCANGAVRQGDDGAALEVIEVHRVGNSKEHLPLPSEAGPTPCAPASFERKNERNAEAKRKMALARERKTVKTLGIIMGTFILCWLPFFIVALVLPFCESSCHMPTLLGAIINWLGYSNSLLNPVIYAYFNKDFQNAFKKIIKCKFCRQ
# Assay: Radioligand binding to recombinant 5-HT1A receptors
# Settings: [3H]8-OH-DPAT 1 nM, membranes of HeLa cells with human 5-HT1A receptor; Ki from IC50 by Cheng & Prusoff; read-out: Binding affinity for 5HT1A receptors, Ki
# In short: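 Displacement of 1 nM [3H]8-OH-DPAT (30 min, 30 °C, Tris-HCl pH 7.4 with MgCl2 and pargyline) from recombinant human 5-HT1A in transfected HeLa membranes, stopped by filtration. Specific binding defined against 10 μM 5-HT; IC50 by nonlinear fitting, then Ki by Cheng–Prusoff.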
row,SMILES,Ki [nM]
1,"O=C(c1cccs1)N1c2ccccc2CCC1CN1CCN(c2cccc3[nH]ccc23)CC1 (stereo not drawn) [Example 68A19, 1-(4-Indolyl)-4-[1-(2-thienylcarbonyl)-1,2,3,4-tetrahydroquinoline-2-ylmethyl]piperazine]",4.1
2,"O=C(c1ccsc1)N1c2ccccc2CCC1CN1CCN(c2cccc3[nH]ccc23)CC1 (stereo not drawn) [Example 68A20, 1-(4-Indolyl)-4-[1-(3-thienylcarbonyl)-1,2,3,4-tetrahydroquinoline-2-ylmethyl]piperazine]",30.7
3,"Cc1ccccc1C1CCN(CC2CCc3ccccc3N2C(=O)C2CCCCC2)CC1 (stereo not drawn) [Example 72A56, 1-(1-Cyclohexanecarbonyl-1,2,3,4-tetrahydroquinolin-2-ylmethyl)-4-(2-methylphenyl)piperidine]",10.1
4,"Cc1cccc(N2CCN(CC3CCc4ccccc4N3C(=O)C3CCCCC3)CC2)n1 (stereo not drawn) [Example 72A20, 1-(1-Cyclohexanecarbonyl-1,2,3,4-tetrahydroquinolin-2-ylmethyl)-4-(6-methylpyridin-2-yl)piperazine]",5.4
5,"N#Cc1ccccc1N1CCN(CC2CCc3ccccc3N2C(=O)C2CCCCC2)CC1 (stereo not drawn) [Example 72A13, 1-(2-Cyanophenyl)-4-(1-cyclohexanecarbonyl-1,2,3,4-tetrahydroquinolin-2-ylmethyl)piperazine]",7.8
6,"CC(C)(C)OC(=O)N1CCC[C@H]1C(=O)N1c2ccccc2CCC1CN1CCN(c2cccc3[nH]ccc23)CC1 (stereo partly drawn) [Example 71A5, 1-[1-(1-tert-Butoxycarbonyl-(2S)-pyrrolidin-2yl)carbonyl-1,2,3,4-tetrahydroquinoline-2-ylmethyl]-4-(4-indolyl)piperazine]",45
7,"CC(C)(C)C(=O)N1c2ccccc2CCC1CN1CCN(c2cccc3[nH]ccc23)CC1 (stereo not drawn) [Example 68A36, 1-[1-(2,2-Dimethylpropionyl)-1,2,3,4-tetrahydroquinoline-2-ylmethyl]-4-(4-indolyl)piperazine]",10.7
8,"Cc1c(F)cccc1C1CCN(CC2CCc3ccccc3N2C(=O)C2CCCCC2)CC1 (stereo not drawn) [Example 72A57, 1-(1-Cyclohexanecarbonyl-1,2,3,4-tetrahydroquinolin-2-ylmethyl)-4-(3-fluoro-2-methylphenyl)piperidine]",6.4
9,"COc1cc(F)ccc1N1CCN(CC2CCc3cc(C)ccc3N2C(=O)C2CCCCC2)CC1 (stereo not drawn) [Example 53, 1-(1-Cyclohexanecarbonyl-6-methyl-1,2,3,4-tetrahydroquinoline-2-ylmethyl)-4-(4-fluoro-2-methoxyphenyl)piperazine]",24.2
10,O=C(Cc1ccc(C(F)(F)F)cc1)N1c2ccccc2CCC1CN1CCN(c2cccc3[nH]ccc23)CC1 (stereo not drawn) [Example 68A31],41.8
11,"Cc1ccc(C(=O)N2c3ccccc3CCC2CN2CCN(c3cccc4[nH]ccc34)CC2)cc1 (stereo not drawn) [Example 68A70, 1-(4-Indolyl)-4-[1-(4-methylbenzoyl)-1,2,3,4-tetrahydroquinoline-2-ylmethyl]piperazine]",5.3
12,"CC(C)(C)NC(=O)N1c2ccccc2CCC1CN1CCN(c2cccc3[nH]ccc23)CC1 (stereo not drawn) [Example 69A12, 1-[1-(1,1-Dimethylethylaminocarbonyl)-1,2,3,4-tetrahydroquinoline-2-ylmethyl]-1-(4-indolyl)piperazine]",2.1
13,"CS(=O)(=O)N(CC(=O)N1c2ccccc2CCC1CN1CCN(c2cccc3[nH]ccc23)CC1)Cc1ccccc1 (stereo not drawn) [Example 68A71, 1-[1-[2-(N-Benzyl-N-methanesulphonylamino)acetyl]-1,2,3,4-tetrahydroquinoline-2-ylmethyl]-4-(4-indolyl)piperazine]",23.5
14,"O=C(COc1ccccc1Cl)N1c2ccccc2CCC1CN1CCN(c2cccc3[nH]ccc23)CC1 (stereo not drawn) [Example 68A50, 1-[1-[2-(2-Chlorophenoxy)acetyl]-1,2,3,4-tetrahydroquinoline-2-ylmethyl]-4-(4-indolyl)piperazine]",27.3
15,"CCc1ccccc1N1CCN(CC2CCc3ccccc3N2C(=O)C2CCCCC2)CC1 (stereo not drawn) [Example 72A11, 1-(1-Cyclohexanecarbonyl-1,2,3,4-tetrahydroquinolin-2-ylmethyl)-4-(2-ethylphenyl)piperazine]",7.7
16,"O=C(C1CCCCC1)N1c2ccccc2CCC1CN1CCN(Cc2cc(Cl)ccc2Cl)CC1 (stereo not drawn) [Example 35A36, 1-(1-Cyclohexanecarbonyl-1,2,3,4-tetrahydroquinoline-2-ylmethyl)-4-(2,5-dichlorobenzyl)piperazine]",2.4
17,"O=C(c1cccc(Cl)c1)N1c2ccccc2CCC1CN1CCN(c2cccc3[nH]ccc23)CC1 (stereo not drawn) [Example 68A6, 1-[1-(3-Chlorobenzoyl)-1,2,3,4-tetrahydroquinoline-2-ylmethyl]-4-(4-indolyl)piperazine]",14.2

row,SMILES,Ki [nM]
1,"O=C(Cc1ccsc1)N1c2ccccc2CCC1CN1CCN(c2nccc3ccccc23)CC1 (stereo not drawn) [Example 75A9, 1-(1-Isoquinolinyl)-4-[1-(3-thienyacetyl)-1,2,3,4-tetrahydroquinolin-2-ylmethyl]piperazine]",16.1
2,"COc1cc(F)ccc1N1CCN(CC2CCc3cc(C)ccc3N2C(=O)C2CCCCCC2)CC1 (stereo not drawn) [Example 73A13, 1-(1-Cycloheptanecarbonyl-1,2,3,4-tetrahydroquinolin-6-methyl-2-ylmethyl)-4-(4-fluoro-2-methoxyphenyl)piperazine]",8.1
3,"O=S(=O)(c1cccs1)N1c2ccccc2CCC1CN1CCN(c2cccc3[nH]ccc23)CC1 (stereo not drawn) [Example 70A1, 1-(4-Indolyl)-4-[1-(2-thienylsulphonyl)-1,2,3,4-tetrahydroquinoline-2-ylmethyl]piperazine]",18.8
4,"COc1cccc(C(=O)N2c3ccccc3CCC2CN2CCN(c3cccc4[nH]ccc34)CC2)c1 (stereo not drawn) [Example 68A67, 1-(4-Indolyl)-4-[1-(3-methoxybenzoyl)-1,2,3,4-tetrahydroquinoline-2-ylmethyl]piperazine]",9.1
5,"O=C(C1CCCCC1)N1c2ccccc2CCC1CN1CCN(C2CCCc3ccccc32)CC1 (stereo not drawn) [Example 60A10, 1-(1-Cyclohexanecarbonyl-1,2,3,4-tetrahydroquinoline-2-ylmethyl)-4-[1-(1,2,3,4-tetrahydronaphthyl)]piperazine]",31.6
6,"O=C(c1c(F)cccc1F)N1c2ccccc2CCC1CN1CCN(c2cccc3[nH]ccc23)CC1 (stereo not drawn) [Example 68A28, 1-[1-(2,6-Difluorobenzoyl)-1,2,3,4-tetrahydroquinoline-2-ylmethyl]-4-(4-indolyl)piperazine]",34.4
7,"O=C(C1CCC(O)CC1)N1c2ccccc2CCC1CN1CCN(c2cccc3[nH]ccc23)CC1 (stereo not drawn) [Example 44, (Z)-1-[1-(4-Hydroxycyclohexanecarbonyl)-1,2,3,4-tetrahydroquinoline-2-ylmethyl]-4-(4-indolyl)piperazine]",30
8,"O=C(C1CCCCC1)N1c2ccccc2CCC1CN1CCN(c2ccnc3ccccc23)CC1 (stereo not drawn) [Example 72A94, 1-(1-Cyclohexanecarbonyl-1,2,3,4-tetrahydroquinolin-2-ylmethyl)-4-(4-quinolyl)piperazine]",10
9,"O=C(C1CCCCC1)N1c2ccccc2CCC1CN1CCN(Cc2ccccc2Cl)CC1 (stereo not drawn) [Example 35A34, 1-(2-Chlorobenzyl)-4-(1-cyclohexanecarbonyl-1,2,3,4-tetrahydroquinoline-2-ylmethyl)piperazine]",12.3
10,"O=C(COc1ccccc1)N1c2ccccc2CCC1CN1CCN(c2cccc3[nH]ccc23)CC1 (stereo not drawn) [Example 68A42, 1-(4-Indolyl)-4-[1-(2-phenoxyacetyl)-1,2,3,4-tetrahydroquinoline-2-ylmethyl]piperazine]",19.8
11,"O=C(C1CCCCC1)N1c2ccccc2CCC1CN1CCC(c2ccccc2)CC1 (stereo not drawn) [Example 72A3, 1-(1-Cyclohexanecarbonyl-1,2,3,4-tetrahydroquinolin-2-ylmethyl)-4-phenylpiperidine]",47.2
12,"COc1ccccc1OCCN(C)CC1CCc2ccccc2N1C(=O)CC(C)(C)C (stereo not drawn) [Example 77A1, N-[1-(3,3-Dimethylbutanoyl)-1,2,3,4-tetrahydroquinolin-2-ylmethyl]-N-[2-(2-methoxyphenoxy)ethyl]methylamine]",24.2
13,"CC(C)(C)NC(=O)N1c2ccccc2CCC1CN1CCN(c2nccc3ccccc23)CC1 (stereo not drawn) [Example 75A15, 1-(1-Isoquinolinyl)-4-[1-(1,1-Dimethyethylaminocarbonyl)-1,2,3,4-tetrahydroquinolin-2-ylmethyl]piperazine]",27.7
14,"O=C(N1CCCCC1)N1c2ccccc2CCC1CN1CCN(c2cccc3[nH]ccc23)CC1 (stereo not drawn) [Example 36, 1-(4-Indolyl)-4-(1-piperidinocarbonyl-1,2,3,4-tetrahydroquinoline-2-ylmethyl)piperazine]",15.6
15,"O=S(=O)(c1ccccc1)N1c2ccccc2CCC1CN1CCN(c2cccc3c2OCCO3)CC1 (stereo not drawn) [Example 76A10, 1-(1-Benzenesulphonyl-1,2,3,4-tetrahydroquinolin-2-ylmethyl)-4-(2,3-dihydrobenzo[1,4]dioxin-5-yl)piperazine]",21.5
16,"Cc1ccc(S(=O)(=O)N2c3ccccc3CCC2CN2CCN(c3cccc4[nH]ccc34)CC2)cc1 (stereo not drawn) [Example 70A3, 1(4-Indolyl)-4-[1-(4-methylphenylsulphonyl)-1,2,3,4-tetrahydroquinoline-2-ylmethyl]piperazine]",15.2
